According to patent publication US4935425A, “4H-quinolizin-4-ones for treatment of diseases associated with immunoglobulin e-antibody formation” (Kissei Pharmaceutical Co., Ltd., priority 1987, dated 1990):

How the values were obtained:
IgG = test: Determination of IgG (Igs other than IgE) produced in in vitro culture of spleen cells from DNP-As immunized mice (ELISA); assay type: cell-based, BALB/c mice; conditions: Mus musculus, 96 h, 4 days culture, 37° C.; for inhibition at 20 µg/mL: 20 μg/ml; for inhibition at 10 µg/mL: 10 μg/ml
Description: (§1) And the inhibitory activities of the quinolizinone derivative of formula (I) are further confirmed by the determination of serum concentrations of Igs in BALB/c mice which are immunized by DNP-As according to a procedure described in Immunology, Vol 21, pp 11-12, 1971.
(§2) BALB/c mice were immunized intraperitoneally with 5 μg of DNP-As adsorbed on 4 mg aluminum hydroxide gel Four weeks after the immunization,the spleens were excised from the mice and 5×10^7 spleen cells were transferred intravenously into the recipient mice which had been exposed to 600 rad of X-ray irradiation. Immediately after cell transfer, the recipients were then immunized intraperitoneally with 5 μg of DNP-As adsorbed on 4 mg aluminum hydroxide gel to induce adoptive secondary immune response. Further 4 weeks after the immunization of recipients, the spleens were excised from them and the spleen cell suspensions containing 5×10^6 cells/ml were cultured with or without a compound to be tested in 96-well micro-titer plates at 37° C. for 4 days. IgE and IgG secreted into the culture supernatant was each determined correspondingly by ELISA and the inhibitory effect was calculated according to the following equation. [formula]

IgE = test: Determination of IgE produced in in vitro culture of spleen cells from DNP-As immunized mice (ELISA); assay type: cell-based, BALB/c mice; conditions: Mus musculus, 96 h, 4 days culture, 37° C.; for inhibition at 20 µg/mL: 20 μg/ml; for inhibition at 10 µg/mL: 10 μg/ml
Description: as §1, §2

| Compound | inhibition at 20 µg/mL (IgG) [%] | inhibition at 20 µg/mL (IgE) [%] | inhibition at 10 µg/mL (IgG) [%] | inhibition at 10 µg/mL (IgE) [%] |
| --- | --- | --- | --- | --- |
| CCOC(=O)c1c(NCc2ccccn2)c(C#N)c(=O)n2ccccc12 [S-1, 3-Cyano-1-ethoxycarbonyl-2-(2-pyridylmethylamino)-4H-quinolizin-4-one] | 13 | 60 |  |  |
| CCOC(=O)c1c(NCc2cccnc2)c(C#N)c(=O)n2ccccc12 [S-6, 3-Cyano-1-ethoxycarbonyl-2-(3-pyridylmethylamino)-4H-quinolizin-4-one] | 16 | 68 |  |  |
| CCOC(=O)c1c(NCc2cnccn2)c(C#N)c(=O)n2ccccc12 [S-14, 3-Cyano-1-ethoxycarbonyl-2-pyrazinylmethylamino-4H-quinolizin-4-one] |  |  | 1 | 72 |
| CCOC(=O)c1c(NCc2nccnc2C)c(C#N)c(=O)n2ccccc12 [S-15, 3-Cyano-1-ethoxycarbonyl-2-(3-methylpyrazinyl)methylamino-4H-quinolizin-4-one] |  |  | 3 | 73 |
| CCOC(=O)c1c(NCc2cnc(C)cn2)c(C#N)c(=O)n2ccccc12 [S-16, 3-Cyano-1-ethoxycarbonyl-2-(5-methylpyrazinyl)-methylamino-4H-quinolizin-4-one] | 7 | 68 |  |  |
| CCOC(=O)c1c(NCc2cncc(C)n2)c(C#N)c(=O)n2ccccc12 [S-17, 3-Cyano-1-ethoxycarbonyl-2-(6-methylpyrazinyl)-methylamino-4H-quinolizin-4-one] |  |  | 12 | 68 |
